Test results from patent US6001880A, “Alkylenediamine derivative, anti-ulcer drug, and antibacterial drug” (Shiseido Co., Ltd., priority 1997, dated 1999).

These molecules were tested on isolated gastric fundic gland (assay: CAP: Acid Secretion Inhibition Test In Vitro ([14C]-aminopyrine uptake)). Details: Oryctolagus cuniculus; final concentration 10^-5 M; histamine 10^-5 M stimulation; read-out: CAP: acid secretion inhibitory rate.
Format: cell-based, rabbit (male Japanese White)
Outline: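 Collagenase-isolated rabbit gastric fundic glands (1.6×10^6 cells/ml) were stimulated with 10^-5 M histamine in the presence of test compound and [14C]-aminopyrine, then shaken 40 min at 37 °C. Pellet versus supernatant radioactivity, corrected with a 20 mM NaSCN sample, gives specific aminopyrine accumulation as the acid-secretion index; duplicates.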

SMILES	inhibition at 10 µM
CCN(CC)CCNC(=O)c1cc(OC)c(OC/C=C(\C)CCC=C(C)C)c(OC)c1 [Example 37]	99.3%
COc1cc(C(=O)NCCN(C)C)cc(OC/C=C(\C)CCC=C(C)C)c1OC [Example 42]	98.6%
CCN(CC=C(C)C)c1ccc(C(=O)NCCN(C(C)C)C(C)C)cc1 [Example 28]	27.3%
CCN(CC)CCNC(=O)c1cc(OC)c(OC/C=C(/C)CCC=C(C)C)c(OC)c1 [Example 38]	99.8%
CCN(CC)CCNC(=O)c1cc(OC/C=C(\C)CCC=C(C)C)ccc1OC/C=C(\C)CCC=C(C)C [Example 16]	100%
CC(C)=CCC/C(C)=C/COc1ccc(OC/C=C(\C)CCC=C(C)C)c(C(=O)NCCN(C(C)C)C(C)C)c1 [Example 17]	100%
CCN(CC)CCNC(=O)c1cc(OCC=C(C)C)cc(OCC=C(C)C)c1 [Example 14]	100%

What follows are molecules tested on Helicobacter pyroli (HP NCTC 11637) (assay: AHP: Antibacterial Activity Test Against Helicobacter pyroli (agar dilution)). Details: Helicobacter, NCTC11637, 168 h; agar dilution, HP NCTC 11637, 7 days.
Format: cell-based, Helicobacter pyroli NCTC 11637
Procedure: AHP: Antibacterial Activity Test Against Helicobacter pyroli The minimum inhibitory concentration (MIC) against Helicobacter pyroli (microacrophilic gram-negative bacterium which is supposed to deeply involve in pathogenesis, relapse, and recrudescence of ulcer, referred to as "HP" in the following) is measured so as to find out compounds which have antibacterial activity against Helicobacter pyroli. MICs were determined by the agar dilution method. The stock culture (-80° C.) of HP NCTC 11637 was thawed and cultured on tripticase soy agar supplemented with 5% sheep blood at 37° C. in an atmosphere of 5% O2, 10% CO2, and 85% N2. Grown colonies were transferred to the same plate and precultured for 3 days under the same condition. […] An appropriate amount of the colony grown on the plate by preculturing was suspended in Mueller Hinton broth till turbidness was recognizable by naked eyes, thereby yielding a bacterial suspension concentrate containing about 10^7 cfu/ml. […] 10 μl of the bacterial suspension for inoculation (about 10^3 cfu) was dropped by dispenser onto an MIC plate for inoculation and cultured for 7 days under the same condition as that of preculture. Thereafter, it was judged whether there had been bacteria growth or not. […] As the result of the comparison of these plates, when the number of the colony on the plate containing the sample compound was less than 90% with respect to that on the control plate, it was represented by "+". Contrary to this, when there was 90% or more, it was represented by "-".

SMILES	MIC
CC(C)=CCC/C(C)=C/COc1ccc(OC/C=C(\C)CCC=C(C)C)c(C(=O)NCCN(C(C)C)C(C)C)c1 [Example 17]	< 3.13 µg/mL

Same assay, conditions: MIC 100 μg/ml or more; colony number vs control plate, 250 mM solution of sample compound

SMILES	AHP: growth class where MIC was 100 μg/ml or more
CCN(CC=C(C)C)c1ccc(C(=O)NCCN(C(C)C)C(C)C)cc1 [Example 28]	+ (the number of the colony on the plate containing the sample compound was less than 90% with respect to that on the control plate)
